Measurements from patent publication US11124497B1, “Inhibitors of cysteine proteases and methods of use thereof” (priority 2020, dated 2021).

Tested on: HCoV 229E
Test: HCoV 229E cytopathic effect (CPE) assay
Format: cell-based, Human Coronavirus (HCov) 229E
Details: CellTiter Glo, read-out: 229 ECPE EC50
Description: Compounds were assayed using standard methods against multiple coronaviral strains, including HCoV 229E and OC43 strains. The antiviral activity of compounds was calculated based on the protection of the virus-induced CPE at each concentration normalized by the virus control.
Cytopathic effect (CPE) was measured by CellTiter Glo following the manufacturer's manual. The antiviral activity of compounds was calculated based on the protection of the virus-induced CPE at each concentration normalized by the virus control.

SMILES	EC50
CC(C)C[C@H](NC(=O)c1nc2cccc(Cl)c2[nH]1)C(=O)N[C@H](C#N)C[C@@H]1CCNC1=O [Compound 127]	2 to 10 µM
COc1cccc2[nH]c(C(=O)N[C@@H](CC(C)C)C(=O)N[C@@H](C[C@@H]3CCNC3=O)C(O)C#N)cc12 (single isomer, unassigned) [135 (Isomer 2)]	< 22 µM
CC(C)C[C@H](NC(=O)c1nc2cccc(Cl)c2[nH]1)C(=O)N[C@H](C#N)C[C@@H]1CCNC1=O [Compound 133]	< 22 µM

Same assay, conditions: unidentified human coronavirus, CellTiter Glo, read-out: 229 ECPE EC50

SMILES	EC50
COc1cccc2[nH]c(C(=O)N3C[C@H]4C([C@H]3C(=O)N[C@H](C#N)C[C@@H]3CCNC3=O)C4(C)C)cc12 (stereo partly drawn) [Compound 197, (2S,5S)—N-[(1S)-1-cyano-2-[(3S)-2-oxopyrrolidin-3-yl]ethyl]-3-(4-methoxy-1H-indole-2-carbonyl)-6,6-dimethyl-3-azabicyclo[3.1.0]hexane-2-carboxamide]	< 22 µM
CC(C)(C)C[C@H](NC(=O)c1cc2ccc(Cl)c(Cl)c2[nH]1)C(=O)N[C@H](C#N)C[C@@H]1CCCNC1=O [Compound 725]	< 22 µM
COc1cccc2[nH]c(C(=O)N[C@@H](CC(C)C)C(=O)N[C@@H](C[C@@H]3CCNC3=O)C(N)C#N)cc12 (stereo partly drawn) [Compound 344C, N-[(1S)-1-[[(1S)-2-amino-2-cyano-1-[[(3S)-2-oxopyrrolidin-3-yl]methyl]ethyl]carbamoyl]-3-methyl-butyl]-4-methoxy-1H-indole-2-carboxamide]	< 22 µM
N#C[C@H](C[C@@H]1CCCNC1=O)NC(=O)[C@H](CC1CC1)NC(=O)c1cc2cc(Cl)ncc2[nH]1 [Compound 717]	< 22 µM
CC(C)C[C@H](NC(=O)c1nc2ccccc2[nH]1)C(=O)N[C@H](C#N)C[C@@H]1CCNC1=O [Compound 103, N-[(1S)-1-[[(1S)-1-cyano-2-[(3S)-2-oxopyrrolidin-3-yl]ethyl]carbamoyl]-3-methyl-butyl]-1H-benzimidazole-2-carboxamide]	< 22 µM
COc1cccc2[nH]c(C(=O)N[C@@H](CC(C)C)C(=O)N[C@@H](C[C@@H]3CCNC3=O)C(C#N)N[C@@H](C)c3ccccc3)cc12 (some centres unmarked) [Compound 329]	< 22 µM
N#C[C@H](C[C@@H]1CCCNC1=O)NC(=O)C1CC2(CCC2)CN1C(=O)c1cc2cccc(Cl)c2[nH]1 (single isomer, unassigned) [729 (Isomer 1)]	< 22 µM
COc1cccc2[nH]c(C(=O)N[C@@H](CC(C)C)C(=O)N[C@H](/C=C/S(C)(=O)=O)C[C@@H]3CCNC3=O)cc12 [Compound 136, 4-methoxy-N-[(1S)-3-methyl-1-[[(E,1S)-3-methylsulfonyl-1-[[(3S)-2-oxopyrrolidin-3-yl]methyl]allyl]carbamoyl]butyl]-1H-indole-2-carboxamide]	> 30 µM
COc1cccc2[nH]c(C(=O)N3CC4(CCCC4)C[C@H]3C(=O)N[C@H](C#N)C[C@@H]3CCNC3=O)cc12 [Compound 401, (S)—N—((S)-1-cyano-2-((S)-2-oxopyrrolidin-3-yl)ethyl)-2-(4-methoxy-1H-indole-2-carbonyl)-2-azaspiro[4.4]nonane-3-carboxamide]	< 22 µM
COc1cccc2[nH]c(C(=O)N[C@@H](CC(C)C)C(=O)N[C@@H](C[C@@H]3CCNC3=O)C(C#N)NCc3ccccc3)cc12 (single isomer, unassigned) [507 (Isomer 1.1)]	< 22 µM
N#C[C@H](C[C@@H]1CCCNC1=O)NC(=O)[C@H](CC1CC1)NC(=O)c1cc2c(Cl)nccc2[nH]1 [Compound 715]	< 22 µM
COc1cccc2[nH]c(C(=O)N3C[C@H](SC)C[C@H]3C(=O)N[C@H](C#N)C[C@@H]3CCNC3=O)cc12 [Compound 551]	2 to 10 µM
COc1cccc2[nH]c(C(=O)N[C@@H](CC3CC3)C(=O)N[C@H](C#N)C[C@@H]3CCNC3=O)cc12 [Compound 205, N—((S)-1-(((S)-1-cyano-2-((S)-2-oxopyrrolidin-3-yl)ethyl)amino)-3-cyclopropyl-1-oxopropan-2-yl)-4-methoxy-1H-indole-2-carboxamide]	< 22 µM
COc1cccc2[nH]c(C(=O)N3C[C@H](c4ccccc4)C[C@H]3C(=O)N[C@@H](C[C@@H]3CCNC3=O)C(O)C#N)cc12 (some centres unmarked) [Compound 345]	< 22 µM
COc1cccc2[nH]c(C(=O)N[C@@H](CC(C)(C)C)C(=O)N[C@H](C#N)C[C@@H]3CCNC3=O)cc12 [Compound 405, N-[(1S)-1-[[(1S)-1-cyano-2-[(3S)-2-oxopyrrolidin-3-yl]ethyl]carbamoyl]-3,3-dimethyl-butyl]-4-methoxy-1H-indole-2-carboxamide]	< 22 µM
CC(C)C[C@H](NC(=O)c1nc2c(OC(F)(F)F)cccc2[nH]1)C(=O)N[C@H](C#N)C[C@@H]1CCNC1=O [Compound 363]	< 22 µM
COc1ccc(Cl)c2[nH]c(C(=O)N[C@@H](CC(C)(C)C)C(=O)N[C@H](C#N)C[C@@H]3CCCNC3=O)cc12 [Compound 737]	< 22 µM
COc1cccc2[nH]c(C(=O)N[C@@H](CC(C)C)C(=O)N[C@@H](C[C@@H]3CCNC3=O)C(O)C#N)cc12 (single isomer, unassigned) [134 (Isomer 1)]	< 22 µM
COc1cccc2[nH]c(C(=O)N3CC4(CC4)C[C@H]3C(=O)N[C@H](C#N)C[C@@H]3CCNC3=O)cc12 [Compound 397]	< 22 µM

SMILES	EC50
CC(C)(C)C[C@H](NC(=O)c1cc2ccc(Cl)cc2[nH]1)C(=O)N[C@H](C#N)C[C@@H]1CCCNC1=O [Compound 745]	< 22 µM
COc1cccc2[nH]c(C(=O)N[C@@H](CC3CC3)C(=O)N[C@H](C#N)C[C@@H]3CCCNC3=O)cc12 [Compound 491, N-[(1S)-2-[[(1S)-1-cyano-2-[(3S)-2-oxo-3-piperidyl]ethyl]amino]-1-(cyclopropylmethyl)-2-oxo-ethyl]-4-methoxy-1H-indole-2-carboxamide]	< 22 µM
COc1cccc2[nH]c(C(=O)N3C[C@H](c4ccccc4)C[C@H]3C(=O)N[C@H](C#N)C[C@@H]3CCNC3=O)cc12 [Compound 171]	< 22 µM
CC(C)C[C@H](NC(=O)c1nc2ncccc2[nH]1)C(=O)N[C@H](C#N)C[C@@H]1CCNC1=O [Compound 131, N-[(1S)-1-[[(1S)-1-cyano-2-[(3S)-2-oxopyrrolidin-3-yl]ethyl]carbamoyl]-3-methyl-butyl]-1H-imidazo[4,5-b]pyridine-2-carboxamide]	2 to 10 µM
N#C[C@H](C[C@@H]1CCCNC1=O)NC(=O)[C@H](CC1CC1)NC(=O)c1nc2c(Cl)ccc(Cl)c2[nH]1 [Compound 637, 4,7-dichloro-N-[(1S)-2-[[(1S)-1-cyano-2-[(3S)-2-oxo-3-piperidyl]ethyl]amino]-1-(cyclopropylmethyl)-2-oxo-ethyl]-1H-benzimidazole-2-carboxamide]	< 22 µM
COc1cccc2[nH]c(C(=O)N3C[C@@H]4CCC[C@@H]4[C@H]3C(=O)N[C@H](C#N)C[C@@H]3CCNC3=O)cc12 [Compound 393]	< 22 µM
CC(C)(C)C[C@H](NC(=O)c1cc2cccc(Cl)c2[nH]1)C(=O)N[C@H](C#N)C[C@@H]1CCCNC1=O [Compound 721, 7-chloro-N—((S)-1-(((S)-1-cyano-2-((S)-2-oxopiperidin-3-yl)ethyl)amino)-4,4-dimethyl-1-oxopentan-2-yl)-1H-indole-2-carboxamide]	< 22 µM
CC(C)C[C@H](NC(=O)c1cc2c(OC(F)(F)F)cccc2[nH]1)C(=O)N[C@H](C#N)C[C@@H]1CCNC1=O [Compound 361]	< 22 µM
COc1cccc2[nH]c(C(=O)N3CC4(CCCCC4)CC3C(=O)N[C@H](C#N)C[C@@H]3CCCNC3=O)cc12 (single isomer, unassigned) [681 (Isomer 1)]	< 22 µM
COc1cccc2[nH]c(C(=O)N[C@@H](CC(C)C)C(=O)NC(C#N)c3cccnc3)cc12 (some centres unmarked) [Compound 433]	2 to 10 µM
CC(C)(C)C[C@H](NC(=O)c1cc2c(Cl)ccc(Cl)c2[nH]1)C(=O)N[C@H](C#N)C[C@@H]1CCCNC1=O [Compound 735]	< 22 µM
COc1cccc2[nH]c(C(=O)N3CC4(CCCCC4)CC3C(=O)N[C@H](C#N)C[C@@H]3CCNC3=O)cc12 (single isomer, unassigned) [389A (Isomer 1)]	< 22 µM
CCNC(C#N)[C@H](C[C@@H]1CCNC1=O)NC(=O)[C@H](CC(C)C)NC(=O)c1cc2c(OC)cccc2[nH]1 (single isomer, unassigned) [511 (Isomer 1)]	< 22 µM
COc1cccc2[nH]c(C(=O)N3C[C@H](c4ccccc4)CC3C(=O)N[C@H](C=O)C[C@@H]3CCNC3=O)cc12 (some centres unmarked) [Compound 344A]	< 22 µM
CCOc1cccc2[nH]c(C(=O)N[C@@H](CC(C)C)C(=O)N[C@H](C#N)C[C@@H]3CCNC3=O)cc12 [Compound 377]	< 22 µM
COc1cccc2[nH]c(C(=O)N[C@@H](CC3CCCCC3)C(=O)N[C@H](C#N)C[C@@H]3CCNC3=O)cc12 [Compound 185, N-[(1S)-2-[[(1S)-1-cyano-2-[(3S)-2-oxopyrrolidin-3-yl]ethyl]amino]-1-(cyclohexylmethyl)-2-oxo-ethyl]-4-methoxy-1H-indole-2-carboxamide]	< 22 µM
CCNC(C#N)[C@H](C[C@@H]1CCNC1=O)NC(=O)[C@H](CC(C)C)NC(=O)c1cc2c(OC)cccc2[nH]1 (stereo partly drawn) [Compound 511, N-[(1S)-1-[[(1S)-2-cyano-2-(ethylamino)-1-[[(3S)-2-oxopyrrolidin-3-yl]methyl]ethyl]carbamoyl]-3-methyl-butyl]-4-methoxy-1H-indole-2-carboxamide]	< 22 µM
COc1cccc2[nH]c(C(=O)N[C@@H](CC(C)C)C(=O)N[C@@H](C[C@@H]3CCNC3=O)C(C#N)NC(C)(C)C)cc12 (single isomer, unassigned) [323 (Isomer 1)]	< 22 µM
COc1c(Cl)ccc2[nH]c(C(=O)N[C@@H](CC(C)(C)C)C(=O)N[C@H](C#N)C[C@@H]3CCCNC3=O)cc12 [Compound 739]	< 22 µM
